Data taken from patent US20230405156A1, “METHODS OF DIAGNOSING AND PROGNOSING CANCERS OF THE HEAD AND NECK” (priority 2021, published 2023).

Tests used:
[1] = system: SSTR; settings: five patients with primary EBV-positive NPC; cited from earlier work
[2] = system: SSTR2 expression in C666-1 cells; test: SSTR2 expression in C666-1 cells under pathway inhibitors; type: cell-based
[3] = system: LMP1-induced SSTR2 expression in NP69 cells; test: LMP1-induced SSTR2 expression in NP69 cells under pathway inhibitors; type: cell-based, human; settings: NP69 cells expressing LMP1
Excerpt: FIGS. 2A-2K. EBV infection is associated with SSTR2 upregulation in NPC—in vitro experiments and external validation dataset. a Immunofluorescence analysis of EBNA1 (red) and SSTR2 (green) expression in two representative examples of cultured primary respiratory epithelial cells before and after infection with the epitheliotropic M81 EBV strain. Nuclei are counterstained with DAPI (blue); Replication (n=5). b Percentages of cells positive for EBNA1 or co-expression of SSTR2 and EBNA1 c LMP1 induces SSTR2 expression in NP69, an immortalized normal nasopharyngeal epithelial cell line (relative quantities of SSTR2 were calculated using the comparative threshold cycle method and normalized using human beta-actin as endogenous control. Data is presented as a ratio relative to vector control). d LMP1-mediated SSTR2 induction in NP69 cells is inhibited by ectopic expression of TRAF3, a negative regulator of NF-κB. e In NP69 cells, LMP1-induced SSTR2 expression is suppressed by the NF-κB inhibitor BAY 11-7085 and MEK inhibitor U0126. f Both CTAR1 and CTAR2 regions of LMP1 (FIG. 6) are essential for LMP1-mediated SSTR2 induction. […] The color of the samples is based on unsupervised hierarchical clustering. […] Middle panel, Microarray SSTR2 expression is positively correlated with viral LMP1 expression (W=129, p=0.041, Wilcoxon two-sided test). […]

[4] = system: C666-1 cells; test: MTT-based cell viability assay (in vitro proliferation/survival); settings: 7 days, dilutions starting from 10 μM
Method: (§1) Culture of the cell lines. C666-1 cells were cultured in RPMI-1640 with 25 mM Hepes (Lonza, Berlin, Germany) supplemented with 10% heat-inactivated FCS (Gibco, Carlsbad, CA), 2 mM L-Glutamine, 100 units/ml penicillin (Gibco), and 0.1 mg/ml streptomycin (Gibco). Cells were maintained at 37° C., 5% CO2 and passaged every 7 days at a 1:2 ratio using accutase (Sigma, St. Louis, MO, USA). Seventy-five percent of culture medium was replaced by fresh medium every 2-3 days. NPC43 and C17 cell lines were cultured in RPMI-1640 with 25 mM Hepes (Lonza, Berlin, Germany) supplemented with 10% heat-inactivated FCS (Gibco, Carlsbad, CA), 2 mM L-Glutamine, 100 units/ml penicillin (Gibco) and 0.1 mg/ml streptomycin (Gibco) and 4 μM Y27632 (Promocell, Heidelberg, Germany). Cells were maintained at 37° C., 5% CO2 and passaged 5 days at a 1:4 ratio using accutase (Sigma, St. Louis, MO, USA). Culture medium was replaced by fresh medium every 2 to 3 days.
(§2) MTT-based cell viability assay. Two days prior addition of test compounds, NPC cells were plated at a density of 2×10^4 cells/well in 96-well plates. Compounds were prepared as advised by manufacturers, diluted half logarithmic in medium and added to the wells in quadruplicate starting from 10 μM (30 μM for cisplatin). PEN-211 containing medium was removed after 2 h, cells were washed with PBS and fresh medium was added. Plates were incubated in a humified chamber for 7 days; 50% of medium were exchanged every other day with fresh drug dilutions. MTT (3-[4,5-dimethylthiazol-2-yl]-2,5 diphenyl tetrazolium bromide) reagent (20 μl/well of 5 mg/ml solution) (Sigma-Aldrich) was added and solubilized after 4 h using 100 μl of a […] SDS/0.01M HCl solution. Dual absorbance was measured after 5 h in a microplate reader (Epoch BioTek, BioTek Instruments, Bad Friedrichshall, Germany) using 550 nm as measurement and 655 nm as reference filter. After subtraction of background absorbance, fractions of surviving cells were obtained by normalization to the mean of nontreated samples.

[5] = system: NPC43 cells; test: as above; settings: 7 days, dilutions starting from 10 μM
Method: as §1, §2

[6] = system: C666-1 cells; test: RNA-seq analysis of C666-1 cells treated with SSTR2-targeted drugs; type: cell-based; settings: for cell senescence pathways (geneset enrichment) / pathways related to somatostatin biology such as interleukin signaling (geneset enrichment) / cell death/apoptotic pathways (geneset enrichment): 24 h post-treatment; for cell death/apoptotic pathways (geneset enrichment): lanreotide or octreotide; for SSTR2 expression (RNA-seq): lanreotide or octreotide treatment
Method: RNA-seq analysis. C666-1 cells were seeded at a density of 1×10^6/well in six-well plates 2 days prior to compound addition. […] Untreated and DMSO-treated (1:2000 in medium) wells were used as controls. 24 and 72 h post-PEN-221 addition, DNA and RNA extraction was performed from separate wells using Quick-DNA Plus and Direct-zol RNA Plus Kit (Zymo Research, Irvine, CA, USA) according to the manufacturers' instructions.
RNA concentration was normalized to 100 ng/50 μl and Illumina libraries prepared using a NEBNext Poly(A) mRNA Magnetic Isolation Module in conjunction with a NEBNext Ultra II Directional RNA Library Prep Kit (New England Biolabs), according to the manufacturer's instructions using adapters diluted 1:50. Libraries were quantitated using the Agilent High Sensitivity D1000 ScreenTape System on a 2200 Tapestation (Agilent), pooled at equimolar concentration, denatured and sequenced on a NextSeq 500 (Illumina). RNA sequencing transcript abundance was estimated from fastq files using the reference-free quantification tool salmon with the gencode GRCh37 transcript annotation. Differential expression analysis was performed using DESeq237 with treatment, time and batch (where applicable) as covariates. Geneset enrichment analysis was performed using the GSEA function from clusterProfiler, with the reactome database pathways on the gene DESeq2 Wald statistics and a minimum and maximum pathway size of 25 and 500, respectively.

Structure (SMILES) | tumor uptake [1] | SSTR2 expression [2] | LMP1-induced SSTR2 expression [3] | in vitro proliferation [4] | in vitro proliferation [5] | cell senescence pathways (geneset enrichment) [6] | pathways related to somatostatin biology such as interleukin signaling (geneset enrichment) [6] | cell death/apoptotic pathways (geneset enrichment) [6] | cell senescence pathways (geneset enrichment) ([6]; listed as Lanreotide) | SSTR2 expression (RNA-seq) [6]
C[C@@H](O)[C@@H]1NC(=O)[C@H](CCCCN)NC(=O)[C@@H](Cc2c[nH]c3ccccc23)NC(=O)[C@H](Cc2ccc(O)cc2)NC(=O)[C@@H](NC(=O)[C@@H](Cc2ccccc2)NC(=O)CN2CCN(CC(=O)[O-])CCN(CC(=O)[O-])CCN(CC(=O)[O-])CC2)CSSC[C@@H](C(=O)N[C@H](CO)[C@@H](C)O)NC1=O.[68Ga+3] [68Ga-DOTA-(Tyr3)-octreotide, ^68Ga-labeled 1,4,7,10-tetraazacyclododecane-N,N9,N99,N999 tetraacetic acid-D-Phe1-Tyr3-octreotide (DOTA-TOC)] | increased uptake | – | – | – | – | – | – | – | – | –
CC(C)(C)c1ccc(S(=O)(=O)/C=C/C#N)cc1 [BAY 11-7085] | – | suppressed | suppressed | – | – | – | – | – | – | –
N#CC(=C(/N)Sc1ccccc1N)/C(C#N)=C(\N)Sc1ccccc1N [U0126] | – | suppressed | suppressed | – | – | – | – | – | – | –
CC(C)[C@@H]1NC(=O)[C@H](CCCCN)NC(=O)[C@@H](Cc2c[nH]c3ccccc23)NC(=O)[C@H](Cc2ccc(O)cc2)NC(=O)[C@@H](NC(=O)[C@H](N)Cc2ccc3ccccc3c2)CSSC[C@@H](C(=O)N[C@H](C(N)=O)[C@@H](C)O)NC1=O [lanreotide] | – | – | – | did not affect in vitro proliferation | did not affect in vitro proliferation | upregulation of senescence pathways | induced upregulation | no changes | upregulation of cell senescence pathways | did not affect SSTR2 expression
C[C@@H](O)[C@@H]1NC(=O)[C@H](CCCCN)NC(=O)[C@@H](Cc2c[nH]c3ccccc23)NC(=O)[C@H](Cc2ccccc2)NC(=O)[C@@H](NC(=O)[C@H](N)Cc2ccccc2)CSSC[C@@H](C(=O)N[C@H](CO)[C@@H](C)O)NC1=O [octreotide] | – | – | – | did not affect in vitro proliferation | did not affect in vitro proliferation | upregulation of cell senescence pathways | induced upregulation | no changes | – | did not affect SSTR2 expression
